Values of other authors, collected in patent US11802256B2, “Method for extracting palmitoleic acid from macadamia integrifolia and use thereof” (SOUTHWEST FORESTRY UNIVERSITY, priority 2021, dated 2023).

What was measured:
tyrosinase = molecular target: T1, tyrosinase (Mus musculus, UniProt P11344); settings: mouse melanocytes, at a protein level
T1 construct: host or cells: mouse melanocytes / mouse melanoma cells (endogenous)
T1 sequence (P11344 19-533): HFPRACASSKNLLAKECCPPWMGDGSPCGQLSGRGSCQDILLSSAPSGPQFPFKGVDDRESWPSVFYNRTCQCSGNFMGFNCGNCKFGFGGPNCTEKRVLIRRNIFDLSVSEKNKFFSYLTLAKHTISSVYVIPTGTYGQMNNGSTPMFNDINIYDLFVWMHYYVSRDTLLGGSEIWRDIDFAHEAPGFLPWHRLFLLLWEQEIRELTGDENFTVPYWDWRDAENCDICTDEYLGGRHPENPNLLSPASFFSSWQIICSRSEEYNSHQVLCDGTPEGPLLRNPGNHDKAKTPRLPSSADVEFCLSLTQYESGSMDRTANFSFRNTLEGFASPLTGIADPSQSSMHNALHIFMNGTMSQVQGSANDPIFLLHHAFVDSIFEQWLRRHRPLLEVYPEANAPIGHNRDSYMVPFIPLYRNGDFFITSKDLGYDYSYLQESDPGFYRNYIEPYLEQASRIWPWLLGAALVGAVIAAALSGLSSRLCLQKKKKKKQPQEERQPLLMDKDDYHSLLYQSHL

In the case of `CCCCCC/C=C\CCCCCCCC(=O)O` [palmitoleic acid], the tyrosinase activity (tyrosinase) is given as “inhibits tyrosinase activity” and the “inhibitory effect on melanin production” value (mouse melanoma cells) is given as “strong inhibitory effect”.
